According to PMC12096834, “Antimicrobial peptide plectasin recombinantly produced in Escherichia coli disintegrates cell walls of gram-positive bacteria, as proven by transmission electron and atomic force microscopy” (Journal of Bacteriology, 2025):
Like-named read-outs stand apart in the source and are kept apart here.

Key:
[1] = tested on: Enterococcus faecalis; assay: TEM quantification of cells with visible damage; format: cell-based
Procedure: (§1) Suspensions of gram-positive bacteria were prepared by taking bacterial colonies out of overnight grown agar plates and resuspending them in MHB. The suspension was set to an OD625 extinction of 0.15–0.20 corresponding to a bacterial cell density of approximately 2 × 10^8 CFU/mL. Then, 3 × 1 mL of suspension was transferred into a 2-mL reaction tube and mixed with either plectasin, CASPON-plectasin, or PBS buffer to obtain volume conditions. The concentration for plectasin was 4 x MIC, and CASPON-plectasin was of the same molar quantity as plectasin. After incubation, the bacterial suspensions were washed with PBS three times, using mild centrifugation conditions for each wash cycle (3,000 g, 15 minutes) to avoid cell damage. Prior to sample preparation, mesh copper grids were pretreated with pioloform film and a thin carbon layer. Additionally, the grids were plasma-cleaned for 10 seconds. All samples were prepared by a negative staining procedure. Sample droplets were placed on copper grids for 10 minutes. Afterward, the grids were placed on a 2% glutaraldehyde in 0.1 M phosphate buffer, washed three times with HQ water, and stained with 1% uranyl acetate for 30 seconds. Grids were then analyzed in the TEM FEI Tecnai G^2 200 kV (Thermo Fisher Scientific, Waltham, MA) under high vacuum with 160 kV. For quantification, each condition (untreated, plectasin-treated, and CASPON-plectasin-treated) and each bacterial strain (the four mentioned above) were analyzed using two independent grid squares per biological duplicate, thus yielding a total of four grid squares per condition. Grid squares comprising ≥11 cells were selected for analysis, and the cells were counted and categorized as “no visible damage” or “visible damage”. Percentages and standard deviations were subsequently calculated for each condition. An example of counting the cells can be found in the supplementary material (Fig. S2).

[2] = tested on: Listeria monocytogenes; assay: TEM quantification of cells with visible damage; format: cell-based
Procedure: as §1

[3] = tested on: Staphylococcus aureus; assay: TEM quantification of cells with visible damage; format: cell-based
Procedure: as §1

[4] = tested on: Streptococcus pneumoniae; assay: TEM quantification of cells with visible damage; format: cell-based
Procedure: as §1

[5] = format: physicochemical
Procedure: IMAC elution buffer was exchanged five times against PBS (137 mM NaCl, […], 2.7 mM KCl, and pH 7.4) with nominal 3 kDa cut-off in Amicon Ultra spin vials (Merck, Darmstadt, Germany). The buffer was exchanged discontinuously until the imidazole concentration was below 10 mM. To prevent loss in the form of precipitated plectasin, the CASPON-plectasin was diluted with PBS to a final concentration of 3.2 mg/mL.
The buffer exchanged solution was treated by digesting CASPON-plectasin, using a 1:100 (mol/mol) dilution of the CASPON enzyme per peptide at 37°C for 12 hours. To prevent caspase oxidation and to facilitate the cleavage process, dithiothreitol (DTT) was added to a final concentration of 1 mM DTT. The temperature was maintained by using an Eppendorf Thermoblock (Hamburg, Germany). The CASPON enzyme is a modification of T7AC-6H cpCasp2, which is described by Cserjan-Puschmann et al. ([28]).
The same RP-HPLC method described by Müller et al. ([24]) was employed for CASPON-plectasin/plectasin quantification. For CASPON-plectasin and plectasin, the concentrations 1, 0.5, 0.25, 0.125, and 0.0625 g/L were utilized to construct the calibration curve.
1.6 CASPON®-plectasin cleavage conditions […]
plectasin is limited to […].
Figure S5 Cleavage experiment using CASPON®-plectasin to examine the potential cleavage of plectasin. The calculated possible plectasin was based on the used CASPON®-plectasin mass (4 g/L), assuming no losses and employing stoichiometric principles.
The temperature and CASPONT® enzyme ratio (C. R.) were varied for the cleavage process. […]
the highest achievable plectasin concentration was 1.6 g/L. This outcome is consistent with the findings of a previous study (Mygind et al. 2005), which postulated that the solubility maximum of plectasin is approximately 1.6 g/L. However, an increase in DTT beyond this concentration […]
(1 picture or pasted object on this page, not shown here)

## CC[C@H](C)[C@@H]1NC(=O)[C@H](CO)NC(=O)[C@H](CCCCN)NC(=O)[C@@H]2CSSC[C@@H](C(=O)N[C@@H](Cc3ccc(O)cc3)C(=O)O)NC(=O)[C@H](CCCCN)NC(=O)[C@@H]3CSSC[C@H](NC(=O)[C@H](CCC(N)=O)NC(=O)[C@H](CCSC)NC(=O)[C@H](CC(=O)O)NC(=O)[C@H](CC(=O)O)NC(=O)[C@H](CCC(=O)O)NC(=O)[C@H](CC(=O)O)NC(=O)[C@H](Cc4c[nH]c5ccccc45)NC(=O)[C@@H]4CCCN4C(=O)CNC(=O)[C@H](CC(N)=O)NC(=O)[C@@H](NC(=O)CNC(=O)[C@H](Cc4ccccc4)NC(=O)CN)CSSC[C@H](NC(=O)[C@H](Cc4ccc(O)cc4)NC(=O)CNC(=O)CNC(=O)[C@H](CCCCN)NC(=O)[C@H](Cc4ccc(O)cc4)NC(=O)CNC(=O)[C@H](CCCCN)NC1=O)C(=O)N[C@@H](C)C(=O)N[C@@H](CCCCN)C(=O)NCC(=O)NCC(=O)N[C@@H](Cc1ccccc1)C(=O)N[C@@H](C(C)C)C(=O)N3)C(=O)N[C@@H](Cc1c[nH]cn1)C(=O)N[C@@H](CC(N)=O)C(=O)N[C@@H](Cc1c[nH]cn1)C(=O)N2 [Plectasin, plectasin]
[1]; Grid Square 1
  No visible damage (%): 29.41%
  Visible damage (%): 70.59%
[1]; Grid Square 2
  No visible damage (%): 28.57%
  Visible damage (%): 71.43%
[1]; Grid Square 3
  No visible damage (%): 21.05%
  Visible damage (%): 78.95%
[1]; Grid Square 4
  No visible damage (%): 27.78%
  Visible damage (%): 72.22%
[1]; negative staining, plectasin 4 x MIC, CASPON-plectasin same molar quantity, mean ± SD of four grid squares (two biological replicates), untreated 4.07, SD
  cells with visible damage: 73.30% ± 3.31%
[1]; negative staining, plectasin 4 x MIC, CASPON-plectasin same molar quantity, mean ± SD of four grid squares, untreated 95.93% ± 2.41%
  cells with no visible damage: 26.70%
[2]; Grid Square 1
  No visible damage (%): 9.09%
  Visible damage (%): 90.91%
[2]; Grid Square 2
  No visible damage (%): 34.48%
  Visible damage (%): 65.52%
[2]; Grid Square 3
  No visible damage (%): 18.18%
  Visible damage (%): 81.82%
[2]; Grid Square 4
  No visible damage (%): 18.75%
  Visible damage (%): 81.25%
[2]; negative staining, plectasin 4 x MIC, CASPON-plectasin same molar quantity, mean ± SD of four grid squares (two biological replicates), untreated 6.97, SD
  cells with visible damage: 79.87% ± 9.13%
[2]; negative staining, plectasin 4 x MIC, CASPON-plectasin same molar quantity, mean ± SD of four grid squares, untreated 93.03% ± 4.81%
  cells with no visible damage: 20.13%
[3]; Grid Square 1
  No visible damage (%): 7.69%
  Visible damage (%): 92.31%
[3]; Grid Square 2
  No visible damage (%): 16.67%
  Visible damage (%): 83.33%
[3]; Grid Square 3
  No visible damage (%): 5.88%
  Visible damage (%): 94.12%
[3]; Grid Square 4
  No visible damage (%): 11.76%
  Visible damage (%): 88.24%
[3]; negative staining, plectasin 4 x MIC, CASPON-plectasin same molar quantity, mean ± SD of four grid squares (two biological replicates), untreated 10.10, SD
  cells with visible damage: 89.50% ± 4.15%
[3]; negative staining, plectasin 4 x MIC, CASPON-plectasin same molar quantity, mean ± SD of four grid squares, untreated 89.90% ± 4.88%
  cells with no visible damage: 10.50%
[4]; Grid Square 1
  No visible damage (%): 11.11%
  Visible damage (%): 88.89%
[4]; Grid Square 2
  No visible damage (%): 16.22%
  Visible damage (%): 83.78%
[4]; Grid Square 3
  No visible damage (%): 13.33%
  Visible damage (%): 86.67%
[4]; Grid Square 4
  No visible damage (%): 8.33%
  Visible damage (%): 91.67%
[4]; negative staining, plectasin 4 x MIC, CASPON-plectasin same molar quantity, mean ± SD of four grid squares (two biological replicates), untreated 15.20, SD
  cells with visible damage: 87.75% ± 2.90%
[4]; negative staining, plectasin 4 x MIC, CASPON-plectasin same molar quantity, mean ± SD of four grid squares, untreated 84.80% ± 3.71%
  cells with no visible damage: 12.25%
[5]; any selected cleavage condition (temperature and CASPON enzyme ratio varied), without DTT, from 4 g/L CASPON-plectasin, preliminary experiments, Fig. S5
  highest achievable plectasin concentration after CASPON-tag cleavage: 1.5 g/L
[5]; in the CASPON enzyme-based tag removal step (PBS pH 7.4, 37°C)
  solubility of plectasin: ~ 1.6 g/L
[5]; with 1 mM DTT as supporting agent, Fig. S6
  highest achievable plectasin concentration after CASPON-tag cleavage: 1.6 g/L
